Experimental findings from patent US20250064886A1, “CARDIOVASCULAR AND CEREBROVASCULAR DRUG AND USE THEREOF” (HANGZHOU ADAMERCK PHARMLABS INC., priority 2021, published 2025) are described below.

Data set [1] deals with vascular endothelial injury induced thrombosis model in zebrafish. Briefly: Preventative effect on vascular endothelial injury induced thrombosis, ponatinib zebrafish model (Example 1). The following applies: 4.00 ng/tail injected. The class given is in vivo. The method, then:
Experimental method: 420 tails of 5 dpf wild type AB strain zebrafish were randomly selected and placed in a six-well plate, with 30 fish per well (experimental group). The fish were injected with compound (1), compound (2), compound (3), compound (4), compound (5), compound (6), compound (7), compound (8), compound (9), compound (10), and compound (11) (structural formula shown in Table 1) at a dose of 4.00 ng/tail, with positive control drug acetylsalicylic acid being administered by dissolving it in water at a concentration of 30.0 µg/mL. Normal control group (i.e. zebrafish treated with standard diluted water) and model control group were set up, with a capacity of 3 mL per well (experimental group). Except for normal control group, the remaining experimental groups were all given Punatinib by dissolving it in water to induce vascular endothelial injury induced thrombosis model in zebrafish. The zebrafish were stained with o-dianisidine after co-treatment with ponatinib and samples for a period of time under incubation conditions at 28° C.
After staining, 10 zebrafish in each group were randomly selected and photographed under the microscope, and the intensity of cardiac erythrocyte staining in zebrafish was analyzed using NIS-Elements D 3.20 advanced image-processing software, and the samples were evaluated for the preventative effect on vascular endothelial injury induced thrombosis by the statistical results of cardiac erythrocyte staining intensity.
The preventative effect on thrombosis is calculated as follows: […]
Statistical analysis was performed using SPSS software, and p<0.05 indicates significant differences

Data set [2] has as its system tryptase. Briefly: Sensitization risk: tryptase expression (OD, BAPNA) in zebrafish (Example 2). To be noted: for Sensitization risk, in words: 500 ng/tail; for Relative sensitization risk (compared with positive control group) / Sensitization risk (%) / Absorbance value (OD value), parallel wells 1-6 / Absorbance value (OD value), mean: 500 ng/tail intravenous; for Absorbance value (OD value), parallel wells 1-6: 28° C. 1 day, single wells; for Absorbance value (OD value), mean: mean of 6 wells. Format: in vivo. The method, then:
Experimental method: 2 dpf wild type AB strain zebrafish were randomly selected and placed in a 24-well plate, with each group 6 parallel wells and 10 zebrafish per well. The zebrafish were injected intravenously with samples at a dose of 500 ng/tail and the positive control “C48/80” at a concentration of 1.5 μg/mL, while normal control group was set up. Each well has a capacity of 1 mL.
All experimental groups were given BAPNA by dissolving it in the water. After treatment at 28° C. for 1 day, the liquid was transferred to 96-well plates with 200 μL/well, and the relative absorbance values (OD values) of the expression levels of tryptase in each experimental group were detected using an microplate reader, and the results of the statistical analysis of the OD values were used to evaluate the risk of sensitization by sample. Statistical results were expressed as mean±SE.
Statistical analysis was performed using SPSS software, and p<0.05 indicates significant differences.

The subject of data set [3] is cerebral ischemic injury in rats caused by autologous thrombus and thrombin. Briefly: Ischemic brain injury in rats caused by autologous thrombus and thrombin (Example 6). The class given is in vivo, rat. The method, then:
The drug was administered once by slow tail vein injection (1 ml per minute) 2 h after modeling, and the decrease in blood flow was monitored after the injection of thrombin, and 120 min after the administration of the drug. Neurobehavioral scoring was performed to determine the neurological function of rats after 24 h. The cerebral infarction rate and cerebral water content of rats were determined using 2,3,5-triphenyltetrazolium chloride (TTC) staining method, and the pathological damage of the brain of rats administered with drug 2 h after cerebral ischemia was observed by hematoxylin-eosin (HE) staining.

Data set [4] has as its system GPX4 mRNA. Briefly: GPX4 mRNA expression (real time PCR) in Erastin-induced neuronal cells (Example 8). To be noted: Erastin 50 μM. Format: cell-based, rat. The method, then:
(§1) Experimental method: Primary neuron cells were incubated in a medium containing Erastin (final concentration of 50 μM) for 24 hours, and then incubated in a medium containing different concentrations of the test drug and Erastin (final concentration of 50 μM) for another 24 hours. After incubation, Real time PCR was used to detect mRNA expression of GPX4 in each group of cells, CCK8 assay was used to detect cell viability in each group of cells, C11-BODIPY probe method was used to detect intracellular lipid ROS levels in each group of cells, and PGSK probe method was used to detect iron content in cells.
(§2) The experimental data were expressed in means±SD, and statistical differences between groups were determined using one-way ANOVA and Tukey's test, with p-values less than 0.05 considered significant.
After incubation, real time PCR was used to detect the mRNA expression of GPX4 in each group of cells. The results were presented as Mean±SD. Compared with the control group, ***p<0.0001; Compared with the model group, #p<0.05, […].
In general terms: Quantitative PCR measures a nucleic acid by following its amplification.

The test system of data set [5] is iron content in Erastin-induced neuronal cells. Briefly: Iron content (PGSK probe) in Erastin-induced neuronal cells (Example 8). The following applies: Erastin 50 μM. Format: cell-based, rat. On the procedure:
as §1, §2
After incubation, the PGSK probe method was used to detect the intracellular iron content. The results were presented as Mean±SD. Compared with the control group, ***p<0.0001; Compared with the model group, #p<0.05, ##p<0.01.

Data set [6] relates to vascular inflammation in high-glucose and high-fat zebrafish. The experiment in a line: Regressive effect on vascular inflammation in high-glucose and high-fat zebrafish (Example 9). Format: in vivo. The method, then:
Experimental method: 360 tails of 5 dpf macrophage fluorescent zebrafish were randomly selected and placed in beakers with 30 tails in each beaker, compound (1), compound (3), and compound (5) were given intravenously, and the positive control group was given atorvastatin calcium by dissolving it in water at a concentration of 30 μg/mL, while the normal control group (fish farming water-treated zebrafish) and the model control group were set up, and the volume of each beaker (experimental group) was 25 mL. Except for the normal control group, all other groups were given high-lipids and high-sucrose feed by dissolving it in water. Compound (1), compound (3) and compound (5) group were co-treated with high-lipids and high-sucrose feed for 30 h. The treatment was carried out up to 9 dpf, and 10 zebrafish were randomly selected from each experimental group to collect the intensity of the macrophage fluorescence within the tail vein and around the tail vein of the zebrafish under fluorescence microscope, and the results of the statistical analysis were used to evaluate the regressive effect of compound (1), compound (3), compound (5) on zebrafish vascular inflammation in the high sugar and high fat model.

The test system of data set [7] is lipid ROS levels in Erastin-induced nerve cells. Briefly: Lipid ROS levels (C11-BODIPY probe) in Erastin-induced nerve cells (Example 8). To be noted: Erastin 50 μM. The class given is cell-based, rat. On the procedure:
as §1, §2
After incubation, the C11-BODIPY probe method was used to detect the lipid ROS levels in each group of cells. The results were presented as Mean±SD. Compared with the control group, ***p<0.0001; compared with the model group, #p<0.05, ##p<0.01.

The subject of data set [8] is Erastin-induced neuronal cells. Briefly: Cell viability (CCK8) of Erastin-induced neuronal cells (Example 8). Format: cell-based, rat. To be noted: Erastin 50 μM. On the procedure: as §1, §2
After incubation, the CCK8 experiment was used to detect the cell viability of each group of cells. The results were presented as Mean±SD. Compared with control group, ***p<0.0001. Compared with model control group, ^#P<0.05, ^##P<0.01.

Several values for one entry are separate records, joined by “and”; a condition that tells them apart may be missing. Equal entries are not always repeated. Marks after values point to notes of the source that are not given here.

`OCC1OC2OC3C(CO)OC(OC4C(CO)OC(OC5C(CO)OC(OC6C(CO)OC(OC7C(CO)OC(OC8C(CO)OC(OC9C(CO)OC(OC1C(O)C2O)C(O)C9O)C(O)C8O)C(O)C7O)C(O)C6O)C(O)C5O)C(O)C4O)C(O)C3O` (stereo not shown) [Compound (10)]: the “Preventative effect on thrombosis (%)” value in data set [1] is reported as 64%. Further, the “Cardiac erythrocyte staining intensity (pixels, mean ± SE)” value in data set [1] (n = 10) worked out at 4326 ± 383 pixels. Moreover, in data set [1] (n = 10, listed as compound (10)), the “Cardiac erythrocyte staining intensity (pixels, mean ± SE)” value amounted to 4326 pixels. Further, in data set [2], the “Sensitization risk, in words” value is reported as “low sensitization risk”; the “Relative sensitization risk (compared with positive control group)” value was 33%; the “Sensitization risk (%)” value was determined as 27.8%; the “Absorbance value (OD value), parallel wells 1-6” value was 0.07115 and 0.06947 and 0.06795 and 0.07585 and 0.06445. The “Absorbance value (OD value), mean” value in data set [2] worked out at 0.069.

On to Urokinase [reference compound], for which the “Cerebral blood flow: Percentage decrease after injection of thrombin (%)” value in data set [3] (5000 U/kg group, value before administration) is on record as 50.10 ± 7.94%. In data set [3] (5000 U/kg i.v.), the “Cerebral infarction rate (%)” value is given as 9.72 ± 9.89 % and the “Cerebral water content (%)” value amounted to 79.78 ± 0.72 %. The “Cerebral blood flow: Percentage decrease two hours after administration (%)” value in data set [3] (5000 U/kg i.v. once 2 h after modeling) was found to be 37.12 ± 4.49 %. The molecule further had a Pathological damage score in data set [3] (5000 U/kg i.v., HE staining) of 1.75 ± 0.86. Besides, in data set [3] (5000 U/kg i.v., after 24 h), the Behavioral score worked out at 1.60 ± 0.70.

Turning to `CC(=O)N[C@@H](CSCC1OC2OC3C(CSC[C@H](NC(C)=O)C(=O)[O-])OC(OC4C(CSC[C@H](NC(C)=O)C(=O)[O-])OC(OC5C(CSC[C@H](NC(C)=O)C(=O)[O-])OC(OC6C(CSC[C@H](NC(C)=O)C(=O)[O-])OC(OC7C(CSC[C@H](NC(C)=O)C(=O)[O-])OC(OC8C(CSC[C@H](NC(C)=O)C(=O)[O-])OC(OC9C(CSC[C@H](NC(C)=O)C(=O)[O-])OC(OC1C(O)C2O)C(O)C9O)C(O)C8O)C(O)C7O)C(O)C6O)C(O)C5O)C(O)C4O)C(O)C3O)C(=O)[O-].[Na+].[Na+].[Na+].[Na+].[Na+].[Na+].[Na+].[Na+]` (stereo partly shown) [Compound (2)], the “Preventative effect on thrombosis (%)” value in data set [1] was determined as 39%. Also, the “Cardiac erythrocyte staining intensity (pixels, mean ± SE)” value in data set [1] (n = 10) worked out at 3655 ± 318 pixels. For the same molecule, in data set [1] (n = 10, listed as compound (2)), the “Cardiac erythrocyte staining intensity (pixels, mean ± SE)” value is given as 3655 pixels. Moreover, in data set [2], the “Sensitization risk, in words” value was “no or substantially no sensitization risk”; the “Relative sensitization risk (compared with positive control group)” value is reported as −4%; the “Sensitization risk (%)” value is listed as −3.7%; the “Absorbance value (OD value), parallel wells 1-6” value is 0.05655 and 0.05255 and 0.04865 and 0.04785 and 0.05085 and 0.05405. In addition, the “Absorbance value (OD value), mean” value in data set [2] amounted to 0.052.

Turning to `CC(=O)N[C@H](CSCC1OC2OC3C(CSC[C@@H](NC(C)=O)C(=O)[O-])OC(OC4C(CSC[C@@H](NC(C)=O)C(=O)[O-])OC(OC5C(CSC[C@@H](NC(C)=O)C(=O)[O-])OC(OC6C(CSC[C@@H](NC(C)=O)C(=O)[O-])OC(OC7C(CSC[C@@H](NC(C)=O)C(=O)[O-])OC(OC8C(CSC[C@@H](NC(C)=O)C(=O)[O-])OC(OC1C(O)C2O)C(O)C8O)C(O)C7O)C(O)C6O)C(O)C5O)C(O)C4O)C(O)C3O)C(=O)[O-].[Na+].[Na+].[Na+].[Na+].[Na+].[Na+].[Na+]` (stereo partly shown) [Compound (5)], the “Expression of GPX4 mRNA” value is 0.4777 ± 0.07^ in data set [4] (1 μM, control about 1.00, Mean±SD); 0.5373 ± 0.08^ in data set [4] (2.5 μM); 0.6033 ± 0.06^# in data set [4] (5 μM); 0.6942 ± 0.01^## in data set [4] (10 μM); 0.7693 ± 0.1^## in data set [4] (20 μM); 0.8368 ± 0.07^## in data set [4] (40 μM). Besides, the “Preventative effect on thrombosis (%)” value in data set [1] came to 64%. Moreover, the “Cardiac erythrocyte staining intensity (pixels, mean ± SE)” value is recorded as 4340 ± 255 pixels in data set [1] (n = 10) and 4340 pixels in data set [1] (n = 10, listed as compound (5)). For the same molecule, the “Iron content (PGSK probe)” value is 56.75 ± 9.31^ in data set [5] (1 μM, control = 100, PGSK fluorescence, weaker = more iron); 68.32 ± 6.01^ in data set [5] (2.5 μM); 72.65 ± 7 in data set [5] (5 μM); 76.52 ± 7.86^# in data set [5] (10 μM); 80.28 ± 6.96^## in data set [5] (20 μM); 87.37 ± 9.57^## in data set [5] (40 μM). Also, the “Anti-inflammatory effect (%)” value in data set [6] (27.8 ng/tail intravenous) is 38*** %; in data set [6] (83.3 ng/tail intravenous) it was 36*** %; in data set [6] (250 ng/tail intravenous), 37*** %. The “Fluorescence intensity of perivascular macrophage (pixels, Mean ± SE)” value in data set [6] (27.8 ng/tail intravenous) turned out to be 113678 ± 4811 pixels; in data set [6] (83.3 ng/tail intravenous) it was 118039 ± 9198 pixels; in data set [6] (250 ng/tail intravenous) it was 115627 ± 5934 pixels. The “Lipid ROS levels (%)” value in data set [7] (1 μM, control = 100, Mean±SD) is 145.89 ± 5.33%; in data set [7] (2.5 μM), 141.47 ± 6.53%; in data set [7] (5 μM), 133.09 ± 9.69%; in data set [7] (10 μM), 128.99 ± 9.84^# %; in data set [7] (20 μM), 122.71 ± 8.5^## %; in data set [7] (40 μM), 114.82 ± 7.13^## %. Moreover, the “Cell viability (%)” value is listed as 58.95 ± 7.21% in data set [8] (1 μM, 24 h, control = 100, Mean±SD); 62.63 ± 7.82% in data set [8] (2.5 μM); 67.38 ± 6.73% in data set [8] (5 μM); 73.74 ± 7.33^# % in data set [8] (10 μM); 79.85 ± 6.34^## % in data set [8] (20 μM); 84.2 ± 4.71^## % in data set [8] (40 μM).
